PubChem BioAssay AID248 (DTP/NCI, 2004)
Values joined by “and” are separate entries in the source; they are usually repeats but may differ in a detail not shown here. Equal values may be shown once. Toxic doses and inconclusive results are not listed. Rule as the data show it: active = T/C of 150% or more; inactive = T/C below 125%.

Tested on: L1210 leukemia ip in BDF1 mice, survival T/C
Assay: NCI In Vivo Anticancer Drug Screen. Data for tumor model L1210 Leukemia (intraperitoneal) in B6D2F1 (BDF1) mice
Conditions: endpoint: mean survival time, higher = longer survival
Procedure, shortened: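 Transplanted-tumor mice were given test agent; controls received vehicle only. Survival readings from the two groups were divided (treated over control).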

[1] = dose: 100.0 mg/kg/injection, schedule: Q01DX009 (ip), vehicle: Klucel (hydroxypropylcellulose) (HPC)
[2] = dose: 200.0 mg/kg/injection, schedule: Q01DX009 (ip), vehicle: Klucel (hydroxypropylcellulose) (HPC)
[3] = dose: 400.0 mg/kg/injection, schedule: Q01DX009 (ip), vehicle: Klucel (hydroxypropylcellulose) (HPC)
[4] = dose: 100.0 mg/kg/injection, schedule: Q04DX002 (ip), vehicle: Klucel (hydroxypropylcellulose) (HPC)
[5] = dose: 200.0 mg/kg/injection, schedule: Q04DX002 (ip), vehicle: Klucel (hydroxypropylcellulose) (HPC)
[6] = dose: 400.0 mg/kg/injection, schedule: Q04DX002 (ip), vehicle: Klucel (hydroxypropylcellulose) (HPC)
[7] = dose: 100.0 mg/kg/injection, schedule: Q04DX003 (ip), vehicle: saline with Tween-80
[8] = dose: 200.0 mg/kg/injection, schedule: Q04DX003 (ip), vehicle: saline with Tween-80
[9] = dose: 400.0 mg/kg/injection, schedule: Q04DX003 (ip), vehicle: saline with Tween-80
[10] = dose: 100.0 mg/kg/injection, schedule: Q01DX001 (ip), vehicle: carboxymethylcellulose (CMC)
[11] = dose: 200.0 mg/kg/injection, schedule: Q01DX001 (ip), vehicle: carboxymethylcellulose (CMC)
[12] = dose: 400.0 mg/kg/injection, schedule: Q01DX001 (ip), vehicle: carboxymethylcellulose (CMC)
[13] = dose: 100.0 mg/kg/injection, schedule: Q01DX009 (ip), vehicle: saline with Tween-80
[14] = dose: 200.0 mg/kg/injection, schedule: Q01DX009 (ip), vehicle: saline with Tween-80
[15] = dose: 400.0 mg/kg/injection, schedule: Q01DX009 (ip), vehicle: saline with Tween-80
[16] = dose: 100.0 mg/kg/injection, schedule: Q04DX003 (ip), vehicle: saline
[17] = dose: 200.0 mg/kg/injection, schedule: Q04DX003 (ip), vehicle: saline
[18] = dose: 400.0 mg/kg/injection, schedule: Q04DX003 (ip), vehicle: saline
[19] = dose: 100.0 mg/kg/injection, schedule: Q04DX003 (ip), vehicle: Klucel (hydroxypropylcellulose) (HPC)
[20] = dose: 200.0 mg/kg/injection, schedule: Q04DX003 (ip), vehicle: Klucel (hydroxypropylcellulose) (HPC)
[21] = dose: 400.0 mg/kg/injection, schedule: Q04DX003 (ip), vehicle: Klucel (hydroxypropylcellulose) (HPC)
[22] = dose: 50.0 mg/kg/injection, schedule: Q01DX009 (ip), vehicle: saline with Tween-80

Measured: T/C

OC1C2CCC(CC2)C1O (centres undefined)
inactive: dose: 4.5 mg/kg/injection, schedule: Q01DX009 (ip), vehicle: saline with Tween-80 92 % of control | dose: 4.5 mg/kg/injection, schedule: Q04DX003 (ip), vehicle: other 108 % of control | dose: 9.0 mg/kg/injection, schedule: Q01DX009 (ip), vehicle: saline with Tween-80 92 % of control | dose: 9.0 mg/kg/injection, schedule: Q04DX003 (ip), vehicle: other 101 % of control | dose: 9.75 mg/kg/injection, schedule: Q01DX001 (ip), vehicle: other 104 % of control | dose: 18.0 mg/kg/injection, schedule: Q01DX009 (ip), vehicle: saline with Tween-80 86 % of control | dose: 18.0 mg/kg/injection, schedule: Q04DX003 (ip), vehicle: other 106 % of control | dose: 18.5 mg/kg/injection, schedule: Q01DX001 (ip), vehicle: other 107 % of control

O=[N+]([O-])c1ccc(S(=O)NOCc2ccccc2)cc1 (centres undefined)
inactive: [1] 96 % of control | [2] 94 % of control | [3] 91 % of control

COc1cc(-c2nc(CCl)no2)cc(OC)c1OC
inactive: [4] 95 % of control | [5] 104 % of control | [6] 104 % of control

COc1ccc(CC2C(=O)OC(=O)C2Cc2ccc(OC)c(OC)c2)cc1OC (centres undefined)
inactive: [7] 91 % of control | [8] 104 % of control | [9] 94 % of control

CC(C)(CO)NCc1ccc(O)cc1
inactive: [10] 96 % of control | [11] 100 % of control | [12] 96 % of control

O=C(CCCc1ccc(N(CCCl)CCCl)cc1)OCCc1ccccc1
inactive: dose: 25.0 mg/kg/injection, schedule: Q04DX002 (ip), vehicle: saline 111 % of control | dose: 50.0 mg/kg/injection, schedule: Q04DX002 (ip), vehicle: saline 114 % of control | dose: 100.0 mg/kg/injection, schedule: Q04DX002 (ip), vehicle: saline 124 % of control | dose: 200.0 mg/kg/injection, schedule: Q04DX002 (ip), vehicle: saline 112 % of control and 122 % of control | dose: 400.0 mg/kg/injection, schedule: Q04DX002 (ip), vehicle: saline 112 % of control

CCOC(=O)c1nnn(-c2cccc(C(F)(F)F)c2)c1-c1ccccc1
inactive: [4] 101 % of control | [5] 105 % of control | [6] 96 % of control

CN1c2ccc(Br)c[c]2[Sn]([CH3])([CH3])[c]2cc(Br)ccc21
inactive: dose: 100.0 mg/kg/injection, schedule: Q01DX001 (ip), vehicle: other 96 % of control | dose: 200.0 mg/kg/injection, schedule: Q01DX001 (ip), vehicle: other 97 % of control | dose: 400.0 mg/kg/injection, schedule: Q01DX001 (ip), vehicle: other 92 % of control

Nc1cc(Cl)ccc1N1CCCCC1
inactive: [13] 114 % of control | [14] 97 % of control | [15] 106 % of control

COc1ccc(C=O)c(Cl)c1OC
inactive: [1] 94 % of control | [16] 92 % of control | [2] 94 % of control | [17] 108 % of control | [18] 98 % of control

COc1ccc(C2=CN(S(=O)(=O)c3ccc(C)cc3)CCc3ccccc32)cc1
inactive: [19] 96 % of control | [20] 102 % of control | [21] 92 % of control

CCCCCCC(/C=N/NC(=O)CCCCCCCCC(=O)N/N=C/C(=C/c1ccccc1)CCCCCC)=C\c1ccccc1
inactive: [1] 93 % of control | [2] 98 % of control | [3] 91 % of control

CCCCCCCCCCCCCCCC(=O)N(CCC#N)CCCCN(CCC#N)C(=O)CCCCCCCCCCCCCCC
inactive: [22] 97 % of control and 106 % of control | [13] 93 % of control and 90 % of control | [14] 95 % of control and 102 % of control | dose: 300.0 mg/kg/injection, schedule: Q01DX009 (ip), vehicle: saline with Tween-80 92 % of control | [15] 98 % of control and 92 % of control | dose: 500.0 mg/kg/injection, schedule: Q01DX009 (ip), vehicle: saline with Tween-80 92 % of control

COc1cc(C=C(C#N)C#N)cc(OC)c1OC
inactive: dose: 25.0 mg/kg/injection, schedule: Q04DX002 (ip), vehicle: gum acacia 100 % of control | dose: 50.0 mg/kg/injection, schedule: Q04DX002 (ip), vehicle: gum acacia 110 % of control | dose: 100.0 mg/kg/injection, schedule: Q04DX002 (ip), vehicle: gum acacia 122 % of control and 91 % of control

C#CC(C)(O)c1ccccc1 (centres undefined)
inactive: [1] 98 % of control | [2] 98 % of control

O/N=C1/CCCC/C1=C/c1ccccc1
inactive: [7] 101 % of control | [8] 97 % of control | [9] 100 % of control

O=C(O)c1ccc(C(=O)c2ccccc2C(=O)O)cc1
inactive: dose: 100.0 mg/kg/injection, schedule: Q01DX009 (ip), vehicle: saline 105 % of control | [16] 102 % of control | dose: 200.0 mg/kg/injection, schedule: Q01DX009 (ip), vehicle: saline 106 % of control | [17] 112 % of control | dose: 400.0 mg/kg/injection, schedule: Q01DX009 (ip), vehicle: saline 105 % of control | [18] 101 % of control

NC(N)=N/N=C(/c1ccccc1)c1ccc2ccccc2c1
inactive: dose: 60.0 mg/kg/injection, schedule: Q01DX Z (oral), vehicle: methylcellulose (MC) 95 % of control | dose: 120.0 mg/kg/injection, schedule: Q01DX Z (oral), vehicle: methylcellulose (MC) 108 % of control | dose: 240.0 mg/kg/injection, schedule: Q01DX Z (oral), vehicle: methylcellulose (MC) 111 % of control | dose: 480.0 mg/kg/injection, schedule: Q01DX Z (oral), vehicle: methylcellulose (MC) 101 % of control | dose: 720.0 mg/kg/injection, schedule: Q01DX Z (oral), vehicle: methylcellulose (MC) 98 % of control | dose: 840.0 mg/kg/injection, schedule: Q01DX Z (oral), vehicle: methylcellulose (MC) 112 % of control

O=C(/C=C/c1ccccc1Cl)NCC(O)CO (centres undefined)
inactive: dose: 100.0 mg/kg/injection, schedule: Q04DX003 (ip), vehicle: other 108 % of control | dose: 200.0 mg/kg/injection, schedule: Q04DX003 (ip), vehicle: other 109 % of control | dose: 400.0 mg/kg/injection, schedule: Q04DX003 (ip), vehicle: other 109 % of control

COc1cc(CC(=O)O)c([N+](=O)[O-])cc1OC
inactive: [10] 97 % of control | [1] 114 % of control | [11] 110 % of control | [2] 103 % of control | [12] 110 % of control | [3] 101 % of control

O=C(C[n+]1ccccc1)N/N=C/c1cccc([N+](=O)[O-])c1
inactive: [22] 91 % of control

CCCCNc1nnc(N)s1
inactive: dose: 100.0 mg/kg/injection, schedule: Q04DX002 (ip), vehicle: saline with Tween-80 98 % of control | dose: 200.0 mg/kg/injection, schedule: Q04DX002 (ip), vehicle: saline with Tween-80 98 % of control

CCc1ncc(N2C3CCCC2CC(=O)C3)[nH]1
inactive: dose: 75.0 mg/kg/injection, schedule: Q01DX001 (ip), vehicle: saline 98 % of control | dose: 150.0 mg/kg/injection, schedule: Q01DX001 (ip), vehicle: saline 98 % of control

CC1CCCN(C(=O)Nc2cccc(C(F)(F)F)c2)C1 (centres undefined)
inactive: dose: 100.0 mg/kg/injection, schedule: Q01DX009 (ip), vehicle: gum acacia 100 % of control | dose: 200.0 mg/kg/injection, schedule: Q01DX009 (ip), vehicle: gum acacia 110 % of control | dose: 400.0 mg/kg/injection, schedule: Q01DX009 (ip), vehicle: gum acacia 99 % of control

CC(=O)c1cc(O)ccc1O
inactive: dose: 25.0 mg/kg/injection, schedule: Q01DX009 (ip), vehicle: saline with Tween-80 96 % of control | [22] 98 % of control | [13] 98 % of control and 86 % of control | [15] 91 % of control

CC(O)C(c1ccccc1)S(C)(=O)=O (centres undefined)
inactive: [1] 117 % of control | [19] 104 % of control | [2] 96 % of control | [20] 111 % of control | [3] 95 % of control | [21] 94 % of control

CC(C)C12OC1CC1C3(C)CCCC(C)(C(=O)O)C3CCC13OC32 (centres undefined)
inactive: [13] 98 % of control | [7] 90 % of control | [14] 96 % of control | [8] 90 % of control | [15] 93 % of control | [9] 90 % of control
